Activity calls are given as the source filed them.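 The calls were made as follows: active = compounds giving half or more protection of infected cells from virus-caused growth loss, again on retest; inactive = the rest.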
Test system: CEM cells HIV-1 protection, formazan growth assay
Test: NCI AIDS Antiviral Assay
Details: for IC50: measured here: growth of uninfected CEM cells
How it was run: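 Soluble formazan readout of cell growth; CEM cells ± HIV-1; 5 drug concs. ≥50% protection → retest; ≥50% again = moderately active; reproducible 100% = confirmed active.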

Row | SMILES | EC50 [µM] | IC50 [µM] | outcome
1 | S=C(Nc1ccc(Br)cn1)NC12CC3CC(CC(C3)C1)C2 | > 200 | 69.2 | –
2 | C[s+]1c2ccccc2c2ccccc21 | > 22.9 | 18.6 | –
3 | CCCCc1ccc(C#CC#Cc2ccc(CCCC)s2)s1 | > 200 | > 200 | –
4 | CN(c1ccccc1)c1cc2ccccc2nn1 | > 200 | 93.3 | –
5 | CN(C)c1ccc(/C=C2/N=C(c3ccccc3)OC2=O)cc1 | > 200 | 141 | –
6 | COCN1COCN(COC)C1=O | > 646 | > 646 | –
7 | O=C1C(N=Nc2ccccc2)Sc2nc3ccccc3n21 (configuration not stated) | > 200 | 85.1 | –
8 | Nc1nc2nn(-c3ccc(C(=O)O)cc3)nc2c(=O)[nH]1 | > 200 | > 200 | –
9 | CCCCCCCCCCCCCCCC(=O)OC(CC(=O)O)C[N+](C)(C)C (configuration not stated) | – | – | inactive
10 | OCC(O)CC[CH2][Sn]([c]1ccccc1)([c]1ccccc1)[c]1ccccc1 (configuration not stated) | – | – | inactive
11 | CCOc1cc2c(cc1O)/C(=N\OC)C[C@@H]1[C@@H]2CC[C@]2(C)[C@@H](O)CC[C@@H]12 | > 200 | 0.0724 | –
12 | Cc1ccc(-n2cnc3c(N/N=C4\SCC(=O)N4c4ccccc4)ncnc32)cc1 | – | – | inactive
13 | c1ccc([P+](c2ccccc2)(c2ccccc2)c2ccc([P+](c3ccccc3)(c3ccccc3)c3ccccc3)cc2)cc1 | > 74.1 | 30.9 | –
14 | CCOC(=O)Cc1c[nH]c2ccc(N(CCO)CCO)cc12 | > 200 | – | –
15 | CN(/C(=N\O)c1ccccc1)c1ccccc1 | – | – | inactive
16 | C=CCP(c1ccccc1)c1ccccc1 | 0.0631 | > 200 | –
17 | Cc1ncc([N+](=O)[O-])n1CCNC(=O)CCCn1ccnc1[N+](=O)[O-] | – | – | inactive
18 | C=C(c1ccccc1)[P+](c1ccccc1)(c1ccccc1)c1ccccc1 | > 20 | 0.219 | –
19 | Oc1ccc(Cl)cc1-c1[nH]c(=S)nc(-c2ccccc2)c1Cl | > 200 | > 200 | –
20 | O=c1cc2ccccc2nn1Cc1cccc(Cl)c1 | > 115 | 102 | –
21 | OCn1nnc2ccccc21 | – | – | inactive
22 | CC(=O)C1=C(O)C2(O)C(=O)c3c(c(C)c4ccc(C)c(O)c4c3O)CC2C(N)C1=O (configuration not stated) | > 53.7 | 3.55 | –
23 | CN(C)CCSC(=Nc1ccccc1)n1cccc1 | > 26.3 | > 26.3 | –

Row | SMILES | EC50 [µM] | IC50 [µM] | outcome
24 | N#C/C(=C\c1ccccc1)c1nc(-c2cc3ccccc3oc2=O)cs1 | > 151 | > 151 | –
25 | CSC1=C(C(=O)Nc2ccc(Cl)cc2)C(N)=NC1=O | > 100 | 74.1 | –
26 | COc1ccc(-c2c(-c3ccccc3)c(C)nc3nc(SC)nc(SC)c23)cc1OC | > 200 | 11.5 | –
27 | Cn1nc(NC(=O)c2cc(NC(=O)Nc3cc(C(=O)Nc4cc(C(=O)Nc5ccc6cc(S(=O)(=O)O)cc(S(=O)(=O)O)c6c5)n(C)n4)n(C)n3)nn2C)cc1C(=O)Nc1ccc2cc(S(=O)(=O)O)cc(S(=O)(=O)O)c2c1 | 5.13 | > 100 | –
28 | CC1(C)S[C@H](c2ccccc2C(=O)O)N[C@@H]1CC(=O)O | – | – | inactive
29 | Cn1c(=O)c2c(nc(N/N=c3/scc(-c4ccccc4)n3Cc3ccccc3)n2C)n(C)c1=O | > 200 | 12.3 | –
30 | O=C1Cn2c(cc(=O)c3ccccc32)O1 | > 67.6 | > 67.6 | –
31 | N#CSCC(Cl)=CCl (mixture of isomers) | > 200 | 49 | –
32 | O=C(N/N=C/c1cccc2ccccc12)c1cccnc1 | > 200 | 112 | –
33 | Cc1cccc(C(C)C)c1NC(=O)C(=O)CC(=O)c1sc(Nc2ccccc2Cl)nc1C | > 200 | > 200 | –
34 | CC(=O)NNC(=S)/N=C/c1c(C)[nH]n(-c2ccccc2)c1=O | – | – | inactive
35 | O=C(CSc1nnc(Cc2ccccc2)o1)Nc1ccc(Cl)cc1 | > 100 | 72.4 | –
36 | O=[p+]1c2ccccc2[nH]c2ccccc21 | > 200 | 56.2 | –
37 | CC(=O)c1cccc(NC(=O)C(=O)NNc2n[nH]c(=S)n2N)c1 | > 282 | 6.76 | –
38 | O=C(NNC(=S)Nc1cccc(Cl)c1)c1cc(-c2ccccc2)nc2ccccc12 | > 200 | 12 | –
39 | CCCCNCCC(SSSC(CCNCCCC)c1ccc(Cl)cc1)c1ccc(Cl)cc1 (configuration not stated) | > 200 | 3.47 | –
40 | [O]=[Sb]([OH])([OH])[c]1ccc(O)cc1 | > 200 | 33.9 | –
41 | OC[C@@H]1C2CCC([C@@H]1CO)C2(Cc1ccccc1)Cc1ccccc1 | > 89.1 | > 89.1 | –
42 | C/C=C(\CC)C(C#N)O[Si](C)(C)C (configuration not stated) | – | – | inactive
43 | COc1ccc(/C=C2\Cc3ccccc3C2=O)cc1 | > 20 | > 20 | –
44 | CC1CC(C)(C)NC2(CCCC2)N1 (configuration not stated) | > 200 | > 200 | –
45 | O=[N+]([O-])c1ccc(SSc2ccc([N+](=O)[O-])cn2)nc1 | > 200 | 9.12 | –
46 | COC(=O)C(=O)C(C(C)=O)C(=O)NCc1ccc(OC)c(OC)c1 (configuration not stated) | 61.7 | 741 | –

Row | SMILES | EC50 [µM] | IC50 [µM] | outcome
47 | CC1(C)CN=C(Nc2ccc(Cl)cc2)S1 | – | – | inactive
48 | COC(=O)CC(C(C(C)=O)C(=O)OCc1ccccc1)N1C(=O)OC(c2ccccc2)C1c1ccccc1 (configuration not stated) | > 83.2 | > 83.2 | –
49 | CC1(C)CC(=O)C(/C=N/c2nc(-c3ccc(Br)cc3)cs2)=C(O)C1 | > 200 | 115 | –
50 | COc1ccc(C2=NOP(c3ccccc3)(c3ccccc3)(c3ccccc3)C2)cc1 | > 105 | 0.661 | –
51 | CCc1cc(=O)oc2c3c(cc(OC(C)C)c12)O[C@H](C)[C@@H](C)C3=O | > 200 | 15.5 | –
52 | C=C1CC[C@@](C)(c2ccc(CO)cc2)C1C (some centres not stated) | – | – | inactive
53 | CCCCn1c(=O)cc(C(=O)O)c2ccccc21 | > 200 | > 200 | –
54 | CCOc1cc(/C=C/c2c(C#N)c(=O)oc3ccc(C)cc23)ccc1O | > 25.1 | 4.47 | –
55 | O=P1(c2ccccc2)C=C(c2ccccc2)NC(c2ccccc2)=C1 | – | – | inactive
56 | O=C(/C=C(\S/C=C(/c1ccccc1)N1CCn2c(C(=O)c3ccccc3)c(C(=O)c3ccccc3)c(C(=O)c3ccccc3)c21)C(=O)c1ccccc1)c1ccccc1 | > 200 | 37.2 | –
57 | N#CSC1CCCCCCC1SC#N (configuration not stated) | > 200 | 10.5 | –
58 | Cc1cc(C)nc(NC(N)=NCCc2ccccc2)n1 | > 200 | 3.31 | –
59 | CCCN=C(N)C(C)=O | > 1950 | > 1950 | –
60 | CC(=O)Nc1ccc(-c2nnc(SCC(=O)Nc3cccc(Cl)c3)o2)cc1 | > 46.8 | 7.59 | –
61 | O=c1oc2ccccc2cc1-c1nc2ccccc2c(=O)[nH]1 | > 100 | > 100 | –
62 | [Cu+2].[NH-]c1ccccc1C(=O)O.[NH-]c1ccccc1C(=O)O | > 200 | 17.4 | –
63 | COc1cccc2c1C(=O)c1c(O)c3c(c(O)c1C2=O)C[C@@](O)(C(=O)CO)C[C@@H]3OC1CC(N2CCOCC2)C(O)C(C)O1 (some centres not stated) | – | – | inactive
64 | COC1OC2COc3ccccc3OC2C(NC(N)=S)C1OC (configuration not stated) | > 132 | 41.7 | –
65 | CCOC(=O)CC1(c2ccccc2)OC(=O)c2ccccc21 (configuration not stated) | – | – | inactive
66 | Cc1ccn2c(N=O)c(-c3ccccc3)nc2c1 | 135 | > 200 | –
67 | Nc1ccc2nc3n(c2c1)C(c1c(F)cccc1F)SC3 (configuration not stated) | > 200 | 126 | –
68 | O=C(O)C1OC(n2cc([N+](=O)[O-])c(=O)[nH]c2=O)C(O)C1O (configuration not stated) | > 200 | > 200 | –
69 | N#CC(c1ccccc1)N(CCc1ccccc1)C(=O)c1ccccc1 (configuration not stated) | > 126 | > 126 | –

Row | SMILES | EC50 [µM] | IC50 [µM] | outcome
70 | CCOC(=O)C1C(=O)CC(C)(O)C(C(=O)OCC)C1c1ccc(O)c(OC)c1 (configuration not stated) | > 200 | > 200 | –
71 | NC1N=C(c2ccc(Cl)cc2)C2=C(N1)c1ccccc1CC2 (configuration not stated) | > 200 | 6.76 | –
72 | C[n+]1c2ccccc2c(NC(CCCN=C(N)N)C(=O)O)c2ccccc21 (configuration not stated) | – | – | inactive
73 | COc1ccc(C(Cc2ccccc2)C2NC(=S)NC2=O)cc1 (configuration not stated) | > 200 | 58.9 | –
74 | CCOC(=O)N1CC2(C(=O)OC)C=CC1C(C(=O)OC)C2 (configuration not stated) | > 200 | > 200 | –
75 | CC(C)c1cccc(C(C)C)c1NC(=O)C(=O)C(C(=O)c1ccccc1-c1ccccc1)C1OC(=O)c2ccccc21 (configuration not stated) | > 64.6 | 25.1 | –
76 | CN(C)c1ccc(/C=C(/C(=O)c2ccccc2)c2ccccc2)cc1 | > 15.8 | > 15.8 | –
77 | C[Si](C)(C)C#C/C(CO)=C(/C#C[Si](C)(C)C)CO | > 33.9 | > 33.9 | –
78 | Oc1cc2ccc3c(c2cc1O)CCc1cn[nH]c1-3 | > 10.7 | > 10.7 | –
79 | COC(=O)C1=C(C(=O)OC)C2(OC(C)=O)c3ccccc3-c3ccccc3C12 (configuration not stated) | > 2.51 | 1.35 | –
80 | O=S(=O)(c1ccc(O)cc1)c1ccc(I)cc1 | > 200 | 64.6 | –
81 | O=C1/C(=C/c2cccc([N+](=O)[O-])c2)Sc2scc(-c3ccc([N+](=O)[O-])cc3)[n+]21 | > 200 | 38 | –
82 | O=C(O)Cn1nnc2c(=O)[nH][nH]c(=O)c21 | > 200 | > 200 | –
83 | Cc1nc2sc3c(c2c(=O)o1)CCCC3 | > 200 | 33.1 | –
84 | CNC(=O)/C(C#N)=C(\N)N1CCCC1 | > 200 | > 200 | –
85 | Cc1nc(C(=O)O)c2ccccc2n1 | – | – | inactive
86 | COc1ccc(C2CC(=O)CC(c3ccc(OC)cc3)C23C(=O)NC(=O)NC3=O)cc1 (configuration not stated) | > 100 | 40.7 | –
87 | COCn1cc(C2=C(C)C(=O)C(C)=C(C)C2=O)cn1 | > 200 | 6.03 | –
88 | CCCCCc1cc(O)cc2c1Oc1cc(O)cc(C(=O)CCCC)c1C(=O)O2 | > 56.2 | 28.2 | –
89 | COc1ccc(/C=C/C(=O)NCC(NC(=O)/C=C/c2ccc(OC)c(OC)c2)C(=O)O)cc1OC (configuration not stated) | > 200 | > 200 | –
90 | CSc1cnc2ccccc2c1Sc1c[nH]c2ccccc2c1=O | > 14.8 | 13.2 | –
91 | CCOC(=O)Nc1ccc2nc(N3CCCCC3)sc2c1 | > 85.1 | 6.31 | –
92 | CCC1Oc2c(CC=C(C)C)c(O)c(C(O)C(C)CC)c3oc(=O)cc1c23 (configuration not stated) | > 200 | 26.3 | –
